In patent US7985731B2, “Sugar chain added GLP-1 peptide” (Otsuka Chemical Holdings Co., Ltd., priority 2007, dated 2011):

Legend:
[1] = test system: db/db (BKS.Cg-+Lepr db/+Lepr db/Jcl) mice; assay: Test Example 8: effect of lowering blood-sugar levels in diabetes model mice; type: in vivo; conditions: 9 nmol/kg intraperitoneal
Description: The oligosaccharide chain added GLP-1 peptide prepared in Example 2, 3, 4, 21 or 23 or the GLP-1 prepared in Comparative Example 1 in a PBS solution (9 nmol/10 ml) was intraperitoneally administered at a dose of 10 ml/kg to BKS.Cg−+Lepr^db/+Lepr^db/Jcl mice (10 week old, male). Blood was collected from the orbits before the compound administration and 30 minutes, 60 minutes, 120 minutes, 180 minutes and 300 minutes after the compound administration. Blood-sugar levels were measured using ACCU-CHEK Aviva (Roche Diagnostics).
The db/db (BKS.Cg−+Lepr^db/+Lepr^db/Jcl) mice serving as diabetes model mice have a mutation in a receptor of leptin which is anorexigenic/energy metabolism-accelerating hormone and develops conditions such as obesity or hyperglycemia.
Blood-sugar levels were measured over time, and their effects of lowering blood-sugar levels were compared with that of the GLP-1 without oligosaccharide chain addition of Comparative Example 1.

mouse GLP-1 receptor = target: T1, mouse GLP-1 receptor (Mus musculus, UniProt O35659); assay: Test Example 6: ability to synthesize cAMP in mouse GLP-1 receptor-expressing CHO-K1 cells; type: cell-based
T1 construct: expressed in transfected cells
T1 sequence (O35659 22-463): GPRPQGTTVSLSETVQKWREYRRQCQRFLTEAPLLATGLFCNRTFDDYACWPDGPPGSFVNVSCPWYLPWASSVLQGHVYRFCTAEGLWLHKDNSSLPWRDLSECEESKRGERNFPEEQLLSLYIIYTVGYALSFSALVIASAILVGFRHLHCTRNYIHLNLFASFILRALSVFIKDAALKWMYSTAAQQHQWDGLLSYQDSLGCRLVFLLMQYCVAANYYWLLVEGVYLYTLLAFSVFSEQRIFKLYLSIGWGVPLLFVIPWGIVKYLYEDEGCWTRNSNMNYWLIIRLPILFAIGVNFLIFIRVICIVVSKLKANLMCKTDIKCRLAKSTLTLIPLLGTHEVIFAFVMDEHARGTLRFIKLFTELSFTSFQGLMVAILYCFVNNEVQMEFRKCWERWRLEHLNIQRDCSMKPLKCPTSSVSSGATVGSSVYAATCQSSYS
Description: 1. Construction of Mouse GLP-1 Receptor-Expressing Vector
A mouse GLP1 receptor sense primer (5′-[…]-3′) (SEQ ID NO: 152) and a mouse GLP-1 receptor antisense primer (5′-[…]-3′) (SEQ ID NO: 153) capable of binding to the 5′ and 3′ ends of mouse GLP-1 receptor cDNA were separately synthesized. PCR was performed using Ex Taq polymerase (TaKaRa) with cDNA (Clone ID: 40046534, Open Biosystems) as a template. Specifically, 50 μL in total of reaction solution consisting of 1 μL of template cDNA (10 ng/μL), 4 μL of 2.5 mM dNTPs, 1 μL of primer solution mixtures (each 50 μM), 5 μL of ×10 Ex Taq polymerase Buffer, 0.25 μL of Ex Taq polymerase and 38.75 μL of sterilized water was used and allowed to react by 94° C. for 1 minute; 94° C. for 45 seconds, 55° C. for 1 minute and 72° C. for 2 minutes (35 cycles); and 72° C. for 10 minutes. The PCR reaction product was electrophoresed on 1% agarose gel, and the cDNA fragment was purified using Wizard SV Gel and PCR Clean-up System (Promega) and treated with restriction enzymes (EcoRI and NheI) to obtain mouse GLP-1 receptor cDNA.
To efficiently obtain cells highly expressing a mouse GLP-1 receptor, a pIRES-gfp vector was used as an expression vector. This vector was prepared by inserting, to a vector pEGFP-N1 (Clontech), an IRES gene-containing DNA fragment obtained by the restriction enzyme treatment (Sal I and BamHI) of pIRESpuro2 (Clontech).
The mouse GLP-1 receptor cDNA fragment was inserted to pIRES-gfp to thereby obtain a mouse GLP-1 receptor-expressing vector mGLP-1R/pIRES-gfp. The DNA sequence of the obtained vector was confirmed using ABI3100-Avant (Applied Biosystems).
2. Preparation of Mouse GLP-1 Receptor-Expressing CHO-K1 Cells
CHO-K1 cells (ATCC catalog No. CCL-61) were transfected with the obtained mGLP-1R/pIRES-gfp using FuGENE (registered trademark) (Roche) according to the instruction manual. The transfected CHO-K1 cells were cultured in RPMI1640 medium (Wako Pure Chemical Industries) containing 10% FCS (Hyclone) and penicillin-streptomycin (SIGMA). Drug selection was conducted by the addition of 1.0 mg/ml G418 (Wako Pure Chemical Industries). The drug resistance cells were sorted with a cell sorter (EPICS ALTRA, Beckman Coulter) using a GFP expression level as an index. After the sorting, the limiting dilution method was conducted to obtain cells highly expressing GFP, namely, cells highly expressing a mouse GLP-1 receptor. The obtained cells were used as mouse GLP-1 receptor-expressing CHO-K1 cells in the experiment shown below.
3. Analysis of Agonist Effect of Oligosaccharide Chain Added GLP-1 Peptide (Ability to Synthesize cAMP)
The mouse GLP-1 receptor-expressing CHO-K1 cells prepared in the preceding paragraph 2 were used to evaluate the agonist effect of the oligosaccharide chain added GLP-1 peptide using the ability to synthesize cAMP as an index.
The mouse GLP-1 receptor-expressing CHO-K1 cells were suspended at a concentration of 5×10^5 cells/ml in RPMI1640 medium containing 10% FCS. The cell suspension was seeded at a concentration of 100 μL per well to a flat-bottomed 96-well plate (Falcon) and cultured at 5% CO2 at 37° C. for 16 hours. The culture supernatant was discarded. The oligosaccharide chain added GLP-1 peptide dissolved in Krebs Ringer bicarbonate Buffer containing 2.5 mM glucose was added at a concentration of 100 μL/well and cultured at 37° C. for 30 minutes. The culture supernatant was immediately discarded. The amount of cAMP synthesized in the mouse GLP-1 receptor-expressing CHO-K1 cells was measured using cAMP ELISA Kit (GE Healthcare or Cayman) and used as an index for the agonist effect of the oligosaccharide chain added GLP-1 peptide on mouse GLP-1 receptors.
GLP-1 increases intracellular cAMP concentrations through the binding to its receptor and promotes insulin secretion. Thus, the activity of the oligosaccharide chain added GLP-1 peptide was evaluated using the ability to synthesize cAMP as an index. […]

C57BL/6JJcl mice = assay: Test Example 7: Oral Glucose Tolerance Test (OGTT); type: in vivo
Description: After 30 minutes, a glucose solution was orally administered at a dose of 1 mg/g. Blood was collected from the orbits before the glucose administration and 30 minutes, 60 minutes and 120 minutes after the glucose administration. Blood-sugar levels were measured using ACCU-CHEK Aviva (Roche Diagnostics).
After the oral administration of the glucose solution to the mice fasted overnight, blood was collected over time, and blood-sugar levels were measured.
The correlation between the oligosaccharide chain structure and the activity was studied in mouse OGTT.

[2] = 9 nmol/kg intraperitoneal 30 minutes before glucose 1 mg/g oral

Row | SMILES | effect of lowering blood-sugar levels in db/db mice ([1]; 10-week-old male mice) | durability of effect of lowering blood-sugar levels in db/db mice ([1]; up to 300 minutes) | cAMP synthesis activity compared with GLP-1 (in words) (mouse GLP-1 receptor) | activity of suppressing rise in blood-sugar levels in OGTT (C57BL/6JJcl mice; 0.09 nmol/kg intraperitoneal) | effect of suppressing rise in blood-sugar levels in OGTT (C57BL/6JJcl mice; 0.9 nmol/kg intraperitoneal) | effect of suppressing rise in blood-sugar levels in OGTT (C57BL/6JJcl mice; [2]) | dose dependence of activity of suppressing rise in blood-sugar levels in OGTT (C57BL/6JJcl mice; doses 0.9 nmol/kg and 0.09 nmol/kg intraperitoneal) | activity of suppressing rise in blood-sugar levels in OGTT relative to GLP-1 (times) (C57BL/6JJcl mice; from doses giving equivalent effect, GLP-1 at 9 nmol/kg)
1 | CC[C@H](C)[C@H](NC(=O)[C@H](Cc1ccccc1)NC(=O)[C@H](CCC(=O)O)NC(=O)[C@H](CCCCN)NC(=O)[C@H](C)NC(=O)[C@H](C)NC(=O)[C@H](CCC(N)=O)NC(=O)CNC(=O)[C@H](CCC(=O)O)NC(=O)[C@H](CC(C)C)NC(=O)[C@H](Cc1ccc(O)cc1)NC(=O)[C@H](CO)NC(=O)[C@H](CO)NC(=O)[C@@H](NC(=O)[C@H](CC(=O)O)NC(=O)[C@H](CO)NC(=O)[C@@H](NC(=O)[C@H](Cc1ccccc1)NC(=O)[C@@H](NC(=O)CNC(=O)[C@H](CCC(=O)O)NC(=O)[C@H](C)NC(=O)[C@@H](N)Cc1c[nH]cn1)[C@@H](C)O)[C@@H](C)O)C(C)C)C(=O)N[C@@H](C)C(=O)N[C@@H](Cc1c[nH]c2ccccc12)C(=O)N[C@@H](CC(C)C)C(=O)N[C@H](C(=O)N[C@@H](CCCCN)C(=O)NCC(=O)N[C@@H](CSCC(=O)N[C@@H]1O[C@H](CO)[C@@H](O[C@@H]2O[C@H](CO)[C@@H](O[C@@H]3O[C@H](CO[C@H]4O[C@H](CO)[C@@H](O)[C@H](O)[C@@H]4O[C@@H]4O[C@H](CO)[C@@H](O[C@@H]5O[C@H](CO[C@]6(C(=O)O)C[C@H](O)[C@@H](NC(C)=O)[C@H]([C@H](O)[C@H](O)CO)O6)[C@H](O)[C@H](O)[C@H]5O)[C@H](O)[C@H]4NC(C)=O)[C@@H](O)[C@H](O[C@H]4O[C@H](CO)[C@@H](O)[C@H](O)[C@@H]4O[C@@H]4O[C@H](CO)[C@@H](O[C@@H]5O[C@H](CO[C@]6(C(=O)O)C[C@H](O)[C@@H](NC(C)=O)[C@H]([C@H](O)[C@H](O)CO)O6)[C@H](O)[C@H](O)[C@H]5O)[C@H](O)[C@H]4NC(C)=O)[C@@H]3O)[C@H](O)[C@H]2NC(C)=O)[C@H](O)[C@H]1NC(C)=O)C(=O)NCC(=O)O)C(C)C [Example 4, 36Cys GLP-1-disialo] | strong effect of lowering blood-sugar levels | blood-sugar levels were kept at low levels after 300 minutes | activity equal to or more than that of the GLP-1 | equivalent to that of the GLP-1 at a dose of 9 nmol/kg | suppressed rise in blood-sugar levels almost completely | strong effect of suppressing rise in blood-sugar levels | dose-dependent activity of suppressing rise in blood-sugar levels | about 100 times
2 | CC[C@H](C)[C@H](NC(=O)[C@H](Cc1ccccc1)NC(=O)[C@H](CCC(=O)O)NC(=O)[C@H](CCCCN)NC(=O)[C@H](C)NC(=O)[C@H](C)NC(=O)[C@H](CCC(N)=O)NC(=O)CNC(=O)[C@H](CCC(=O)O)NC(=O)[C@H](CC(C)C)NC(=O)[C@H](Cc1ccc(O)cc1)NC(=O)[C@H](CO)NC(=O)[C@H](CO)NC(=O)[C@@H](NC(=O)[C@H](CC(=O)O)NC(=O)[C@H](CO)NC(=O)[C@@H](NC(=O)[C@H](Cc1ccccc1)NC(=O)[C@@H](NC(=O)CNC(=O)[C@H](CCC(=O)O)NC(=O)[C@H](C)NC(=O)[C@@H](N)Cc1c[nH]cn1)[C@@H](C)O)[C@@H](C)O)C(C)C)C(=O)N[C@@H](C)C(=O)N[C@@H](Cc1c[nH]c2ccccc12)C(=O)N[C@@H](CC(C)C)C(=O)N[C@H](C(=O)N[C@@H](CSCC(=O)N[C@@H]1O[C@H](CO)[C@@H](O[C@@H]2O[C@H](CO)[C@@H](O[C@@H]3O[C@H](CO[C@H]4O[C@H](CO)[C@@H](O)[C@H](O)[C@@H]4O[C@@H]4O[C@H](CO)[C@@H](O[C@@H]5O[C@H](CO)[C@H](O)[C@H](O)[C@H]5O)[C@H](O)[C@H]4NC(C)=O)[C@@H](O)[C@H](O[C@H]4O[C@H](CO)[C@@H](O)[C@H](O)[C@@H]4O[C@@H]4O[C@H](CO)[C@@H](O[C@@H]5O[C@H](CO)[C@H](O)[C@H](O)[C@H]5O)[C@H](O)[C@H]4NC(C)=O)[C@@H]3O)[C@H](O)[C@H]2NC(C)=O)[C@H](O)[C@H]1NC(C)=O)C(=O)NCC(=O)N[C@@H](CCCNC(=N)N)C(=O)NCC(=O)O)C(C)C [Example 27, 34Cys GLP-1-asialo] |  |  | activity equal to or more than that of the GLP-1 |  |  | strong effect of suppressing rise in blood-sugar levels |  | 
